Assay [1] deals with Rattus norvegicus. As to the kind of experiment: Antihypertensive activity in iv dosed anesthetized SHR rat assessed as decrease in basal mean arterial blood pressure. As to conditions: Artery. It counts as functional, organism-based.
The subject of assay [2] is Rattus norvegicus. As to the kind of experiment: Antihypertensive activity in iv dosed anesthetized WKY rat assessed as hypotensive activity. It counts as functional, organism-based.
In assay [3] the test system is Rattus norvegicus. As to the kind of experiment: Antihypertensive activity in iv dosed anesthetized SHR rat assessed as concomitant fall in heart rate. It counts as functional, organism-based.
Assay [4] deals with Rattus norvegicus. As to the kind of experiment: Antihypertensive activity in anesthetized SHR rat assessed as decrease in basal mean arterial blood pressure at 10 mg/kg, iv pretreated with hexamethonium for 10 mins. The conditions noted are these: Artery. Also noted: dose 10 mg/kg. It counts as functional, organism-based.
The test system of assay [5] is Rattus norvegicus. As to the kind of experiment: Antihypertensive activity in anesthetized SHR rat assessed as decrease in heart rate at 10 mg/kg, iv pretreated with hexamethonium for 10 mins. Also noted: dose 10 mg/kg. It counts as functional, organism-based.
Assay [6] relates to Rattus norvegicus. As to the kind of experiment: Antihypertensive activity in anesthetized SHR rat assessed as decrease in basal mean arterial blood pressure at 10 mg/kg, iv pretreated with atropine for 10 mins. It counts as functional, Artery.
For assay [7], the system named is Rattus norvegicus. As to the kind of experiment: Antihypertensive activity in anesthetized SHR rat assessed as decrease in basal mean arterial blood pressure at 10 mg/kg, iv. It counts as functional, Artery.
Assay [8] relates to Rattus norvegicus. As to the kind of experiment: Antihypertensive activity in anesthetized SHR rat assessed as decrease in heart rate at 10 mg/kg, iv pretreated with atropine for 10 mins. It counts as functional.
The test system of assay [9] is Rattus norvegicus. As to the kind of experiment: (§1) Antihypertensive activity in anesthetized SHR rat assessed as decrease in heart rate at 10 mg/kg, iv. It counts as functional.
The test system of assay [10] is Rattus norvegicus. As to the kind of experiment: Antihypertensive activity in anesthetized SHR rat assessed as decrease in basal mean arterial blood pressure at 10 mg/kg, iv pretreated with phentolamine for 10 mins. It counts as functional, Artery.
Assay [11] relates to Rattus norvegicus. As to the kind of experiment: Antihypertensive activity in anesthetized SHR rat assessed as decrease in heart rate at 10 mg/kg, iv pretreated with phentolamine for 10 mins. In kind it is functional.
Assay [12] concerns Rattus norvegicus. As to the kind of experiment: Antihypertensive activity in anesthetized SHR rat assessed as hypotensive response lasting time at 10 mg/kg, iv. In kind it is functional.
For assay [13], the system named is Rattus norvegicus. As to the kind of experiment: Increase in basal mean arterial blood pressure anesthetized SHR rat at 0.2 mg/kg, iv. It counts as functional, organism-based. Also noted: dose 0.2 mg/kg.
For assay [14], the system named is Rattus norvegicus. As to the kind of experiment: Increase in basal mean arterial blood pressure anesthetized SHR rat at 0.5 mg/kg, iv. It counts as functional, organism-based. The arrangement: dose 0.5 mg/kg.
Assay [15] has as its system Rattus norvegicus. As to the kind of experiment: Increase in basal mean arterial blood pressure anesthetized SHR rat at 1 mg/kg, iv. It counts as functional, organism-based. The arrangement: dose 1 mg/kg.
Assay [16] deals with Rattus norvegicus. As to the kind of experiment: Increase in basal mean arterial blood pressure anesthetized SHR rat at 2 mg/kg, iv. It counts as functional, organism-based. The arrangement: dose 2 mg/kg.
Assay [17] relates to Rattus norvegicus. As to the kind of experiment: Increase in basal mean arterial blood pressure anesthetized SHR rat at 5 mg/kg, iv. It counts as functional, organism-based. The arrangement: dose 5 mg/kg.
Assay [18] relates to Rattus norvegicus. As to the kind of experiment: Increase in basal mean arterial blood pressure anesthetized SHR rat at 10 mg/kg, iv. It counts as functional, organism-based. Also noted: dose 10 mg/kg.
For assay [19], the system named is Rattus norvegicus. As to the kind of experiment: Antihypertensive activity in anesthetized SHR rat assessed as decrease in heart rate at 0.2 mg/kg, iv. In kind it is functional, organism-based. The arrangement: dose 0.2 mg/kg.
The subject of assay [20] is Rattus norvegicus. As to the kind of experiment: Antihypertensive activity in anesthetized SHR rat assessed as decrease in heart rate at 0.5 mg/kg, iv. In kind it is functional, organism-based. Also noted: dose 0.5 mg/kg.
Assay [21] deals with Rattus norvegicus. As to the kind of experiment: Antihypertensive activity in anesthetized SHR rat assessed as decrease in heart rate at 1 mg/kg, iv. Also noted: dose 1 mg/kg. It counts as functional, organism-based.
The subject of assay [22] is Rattus norvegicus. As to the kind of experiment: Antihypertensive activity in anesthetized SHR rat assessed as decrease in heart rate at 2 mg/kg, iv. It counts as functional, organism-based. The arrangement: dose 2 mg/kg.
For assay [23], the system named is Rattus norvegicus. As to the kind of experiment: Antihypertensive activity in anesthetized SHR rat assessed as decrease in heart rate at 5 mg/kg, iv. In kind it is functional, organism-based. Also noted: dose 5 mg/kg.
Assay [24] concerns Rattus norvegicus. Described as §1. It counts as functional, organism-based. The arrangement: dose 10 mg/kg.
The subject of assay [25] is Rattus norvegicus. As to the kind of experiment: Antihypertensive activity in anesthetized SHR rat assessed as decrease in basal mean arterial blood pressure at 2 mg/kg, iv after 24 to 26 seconds. It counts as functional, Artery.
In assay [26] the test system is Rattus norvegicus. As to the kind of experiment: Antihypertensive activity in anesthetized SHR rat assessed as decrease in heart rate at 2 mg/kg, iv after 24 to 26 seconds. It counts as functional.
The test system of assay [27] is Rattus norvegicus. As to the kind of experiment: Antihypertensive activity in anesthetized SHR rat assessed as basal mean arterial blood pressure at 2 mg/kg, iv after 10 mins. It counts as functional, Artery.
In assay [28] the test system is Rattus norvegicus. As to the kind of experiment: Antihypertensive activity in anesthetized SHR rat assessed as heart rate at 2 mg/kg, iv after 10 mins. It counts as functional.
The test system of assay [29] is Rattus norvegicus. As to the kind of experiment: Antihypertensive activity in anesthetized SHR rat assessed as decrease in basal mean arterial blood pressure at 20 mg/kg, iv after 1 to 1.5 mins. It counts as functional, Artery.
In assay [30] the test system is Rattus norvegicus. As to the kind of experiment: Antihypertensive activity in anesthetized SHR rat assessed as decrease in heart rate at 20 mg/kg, iv after 1 to 1.5 mins. In kind it is functional.
Assay [31] concerns Rattus norvegicus. As to the kind of experiment: Antihypertensive activity in anesthetized SHR rat assessed as decrease in basal mean arterial blood pressure at 20 mg/kg, iv after 10 mins. In kind it is functional, Artery.
The test system of assay [32] is Rattus norvegicus. As to the kind of experiment: Antihypertensive activity in anesthetized SHR rat assessed as decrease in heart rate at 20 mg/kg, iv after 10 mins. In kind it is functional.
Assay [33] deals with Rattus norvegicus. As to the kind of experiment: Antihypertensive activity in anesthetized SHR rat assessed as decrease in basal mean arterial blood pressure at 3 mg/kg, iv. In kind it is functional, Artery.
Assay [34] concerns Rattus norvegicus. As to the kind of experiment: Antihypertensive activity in anesthetized SHR rat assessed as increase in heart rate at 3 mg/kg, iv. It counts as functional.
Assay [35] relates to Rattus norvegicus. As to the kind of experiment: Antihypertensive activity in anesthetized SHR rat assessed as decrease in basal mean arterial blood pressure at 3 mg/kg, iv after 10 mins. It counts as functional, Artery.
Assay [36] deals with Rattus norvegicus. As to the kind of experiment: Antihypertensive activity in anesthetized SHR rat assessed as decrease in heart rate at 3 mg/kg, iv after 10 mins. It counts as functional.

The source made the active and inactive calls. The rule behind the calls is not given here.

On to `COC(=O)N1c2c(OC)cccc2[C@@]23CCN4CC=C[C@]5(CC[C@]12[C@](O)(C(=O)OC)[C@@H]5O)[C@H]43` [KOPSINGINE], for which the Activity result was “Dose-dependent effect” in assay [1]; “Dose-dependent effect” in assay [2]; “Dose-dependent effect” in [3]; -51 mmHg in assay [6]; -68.5 mmHg in assay [7]; -71.5 bpm in [8]. The Activity in assay [9] was -101 bpm; in [10] it was 30.7 mmHg; in [11] it was 66.7 bpm; in assay [12], 3.9 min. The outcome in assay [4] and in assay [5] was inactive.
Consider `COC(=O)N1c2c(OC)cccc2[C@@]23CCN4[C@@H]5C[C@@H](OC)[C@]6(CC[C@]12[C@](O)(C(=O)OC)[C@H]6O5)[C@H]43`, for which the Activity entry in assay [1] and in assay [3] was “Dose-dependent effect” in each case. The result in assay [13], in [14], in assay [15], in assay [16], in assay [17] and in [18] was Active. The result in [19], in assay [20], in assay [21], in [22], in assay [23] and in assay [24] was Active.
For the compound `COC(=O)N1c2c(OC)cccc2[C@@]23CCN4CCC[C@]5(CC[C@]12[C@](O)(C(=O)OC)[C@@H]5O)[C@H]43` [DIHYDROKOPSINGINE], the Activity result is “Dose-dependent effect” in [1]; “Dose-dependent effect” in assay [3]; -44.7 mmHg in [7]; -49.2 bpm in assay [9]; 18.2 mmHg in [10]; -52.5 bpm in [11]. Besides, the result in [4] and in assay [5] was inactive.
As for `COC(=O)N1c2ccccc2[C@]23CCN4CC=C[C@@]5(CC[C@@]12[C@@](O)(C(=O)OC)[C@H]5O)[C@@H]43` [KOPSAPORINE], the results for the Activity entry in assay [1] and in assay [12] were “Dose-dependent effect” and 3.6 min, respectively.
Turning to `CN1[C@@H]2CC[C@H]1C[C@@H](OC(=O)C(CO)c1ccccc1)C2` (stereo partly drawn) [ATROPINE], the Activity in [25] is reported as 155.6 mmHg; in [26] it was 371 bpm; in [27], 160.9 mmHg; in assay [28], 368 bpm.
As to `C[N+](C)(C)CCCCCC[N+](C)(C)C.[Cl-].[Cl-]` [HEXAMETHONIUM CHLORIDE], the Activity amounted to 92 mmHg in assay [29], 313.6 bpm in assay [30], 104.8 mmHg in assay [31] and 296.8 bpm in assay [32].
Regarding `Cc1ccc(N(CC2=NCCN2)c2cccc(O)c2)cc1` [PHENTOLAMINE], the Activity stood at 106.7 mmHg in [33], 372.5 bpm in [34], 108.4 mmHg in assay [35] and 356.7 bpm in assay [36].
`COC(=O)N1c2c(OC)cccc2[C@@]23CCN4[C@H]5CC[C@]6(CC[C@]12[C@](O)(C(=O)OC)[C@@H]6O5)[C@H]43`: the Activity entry in assay [1] and in assay [3] was “Dose-dependent effect” each time. The result in [13], in assay [14], in assay [15], in assay [16], in [17] and in [18] was Active. Further, the outcome in assay [19], in assay [20], in assay [22], in assay [23], in assay [24] and in assay [4] was Active. Besides, the result in assay [5] was Active.

Source of the values: ChEMBL document CHEMBL1141733, “Cardiovascular effects of aspidofractinine-type alkaloids from Kopsia” (1998).
